Values quoted from earlier work, collected in patent US20210205199A1, “Dermatological Cosmetic Composition Comprising an SDKP Peptide or an Analog Thereof” (RPM Dermatologie, priority 2016, published 2021).

Conditions: result in words; background

Question: For “acetyl-serine-aspartic acid-lysine-proline-OH [Ac-SDKP-OH]”, which “Sensitivity to enzymatic hydrolysis” value is on record?
Answer: The value was “very sensitive to enzymatic hydrolysis”.

Question: And the Stability to hydrolysis?
Answer: The Stability to hydrolysis was “hydrolyzes very easily”.
